“Also recorded” adds a separate entry of the source. Like-named read-outs stand apart in the source and are kept apart here. Where no end group is shown, it is not given here.
Columns and labels:
ClfB [1] = target: T1, ClfB (Staphylococcus aureus, UniProt Q99R07); assay type: cell-based, S. aureus; design: expressed in transfected cells; host or cells: yeast Y2H reporter strain AH109; conditions: among 100 clones after two rounds of selection against ClfB
ClfB [2] = target: T1, ClfB; conditions: Y2H-strain AH109, prey plasmid pGADT7
Procedure: All constituents of this mini-library are tested directly in a binary manner against ClfB. • The identified interactions between ClfB and KRT6A, KRT8, and KRT5 (cf Table 1) were used for the experiment. • The interacting KRT-genes were compared in order to identify the plasmid harbouring the shortest KRT gene-fragment from the initial Y2H-screen. […] The clone with the smallest ClfB interacting DNA-insert is called clone clb10.1 • Clone clb10.1 was used as template for primer-design. PCR-primers were designed to lead to N-terminal truncations of the resulting protein. The clb10.1 DNA-template contains a 330 base pair DNA-fragment of the gene coding region of KRT8 (corresponds to a peptide of 110 amino acids). • The first primer-pair binds 45 bp downstream of the clb10.1 DNA-template resulting in a 45 by shortened DNA-fragment after PCR (the generated PCR-product contains a gene coding sequence of 285 bp). The resulting peptide encoded from this DNA is 95 amino acids. The PCR-product was cloned into an empty Y2H-prey plasmid, pGADT7. The plasmid was sequenced and the clone was named Frag1. • The second primer pair amplifies a PCR-product, which contains a gene coding sequence of 144 bp, which corresponds to a peptide of 48 amino acids. The PCR-product was cloned into an empty Y2H-prey plasmid, pGADT7. The plasmid was sequenced and the clone was named Frag2. • The third primer pair still amplifies the same gene coding sequence of KRT8, however the 3-primed untranslated region was removed. The 3-primed untranslated region is 241 bp long and not relevant for the interaction with ClfB protein. The removal of this 241 region was achieved by using a PCR-reverse primer, which binds upstream of this region in the DNA-template of clone 10.1. The resulting peptide, when translated from this PCR-product is still 48 amino acids. The PCR-product was cloned into an empty Y2H-prey plasmid, pGADT7. The plasmid was sequenced and the clone was named Frag2-CDS. • The fourth primer pair amplifies a PCR-product of 84 bp, which when translated into a protein will correspond to a peptide of 28 amino acids. The PCR-product was cloned into an empty Y2H-prey plasmid, pGADT7. The plasmid was sequenced and the clone was named Frag2-binding domain. • The fifth primer pair amplifies a PCR-product of 78 bp; when translated into a protein this fragment will correspond to a peptide of 26 amino acids. The PCR-product was cloned into an empty Y2H-prey plasmid, pGADT7. The plasmid was sequenced and the clone was named Frag3. • After PCR, the fragments were separated by gel-electrophoresis and the DNA was extracted from the gels by a commercial gel-extraction kit. The DNA was cut by restriction enzymes and cloned into the Y2H-plasmid pGADT7. The cloning reaction was introduced by plasmid transformation into E. coli. The transformation mixture was plated out onto plasmid-selective media containing the appropriate antibiotic. Growing colonies were inoculated into liquid media containing the same antibiotic, and the E. coli liquid culture was plasmid-purified and sequenced for confirmation. • Pure plasmid DNA from all constructs (Frag1, Frag2, Frag2-CDS, Frag2-binding domain, Frag3, clb10.1 clone, as well as full-length KRT6A, full-length KRT8, and full-length KRT5) were mixed to obtain a mini-library of different shortened fragments from the same interactor of ClfB.

ClfB [3] = target: T1, ClfB; conditions: for Relative interaction strength to ClfB compared to the original binder: X-Gal overlay assays and growth strength on 3AT media, AH109 cells; for More beta galactosidase in comparison to the original binder: X-Gal overlay, equal numbers of cells
His-tagged ClfB protein [4] = target: T2, His-tagged ClfB protein (Staphylococcus aureus, UniProt Q99R07); conditions: 5 μg spotted onto membrane, His-tag antibody detection
T2 sequence (Q99R07 45-841): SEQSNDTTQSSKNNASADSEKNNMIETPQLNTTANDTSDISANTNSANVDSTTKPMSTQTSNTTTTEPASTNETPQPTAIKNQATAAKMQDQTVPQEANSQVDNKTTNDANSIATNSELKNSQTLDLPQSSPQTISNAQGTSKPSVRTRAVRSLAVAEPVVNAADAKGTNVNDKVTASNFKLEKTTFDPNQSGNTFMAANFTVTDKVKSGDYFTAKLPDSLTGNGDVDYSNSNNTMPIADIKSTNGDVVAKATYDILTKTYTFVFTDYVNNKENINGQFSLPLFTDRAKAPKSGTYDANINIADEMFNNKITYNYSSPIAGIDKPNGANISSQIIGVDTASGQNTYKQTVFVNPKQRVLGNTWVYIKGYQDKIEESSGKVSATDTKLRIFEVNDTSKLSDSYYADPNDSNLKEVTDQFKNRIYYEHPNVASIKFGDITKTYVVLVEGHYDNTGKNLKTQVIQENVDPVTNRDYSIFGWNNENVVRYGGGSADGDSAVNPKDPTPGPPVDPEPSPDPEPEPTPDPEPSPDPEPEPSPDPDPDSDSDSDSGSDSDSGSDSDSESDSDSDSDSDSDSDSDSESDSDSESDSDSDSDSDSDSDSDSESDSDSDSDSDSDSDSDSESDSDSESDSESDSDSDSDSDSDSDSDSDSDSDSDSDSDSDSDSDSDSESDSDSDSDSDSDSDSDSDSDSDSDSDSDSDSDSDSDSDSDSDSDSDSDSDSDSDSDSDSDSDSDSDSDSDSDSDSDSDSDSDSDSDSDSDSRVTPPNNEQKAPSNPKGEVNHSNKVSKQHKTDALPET
Procedure: 7.1. […] This peptide was also synthesized.
Peptides were spotted onto a protein binding membrane and incubated with recombinant His-tagged ClfB protein. The irreversibly bound peptides can be targeted by additionally added ClfB. Bound ClfB protein is detected by a His-tag specific antibody (see FIG. 7).

[5] = target: T3, activation domain of yeast protein GAL4 (Saccharomyces cerevisiae, UniProt P04386); test: Y2H specificity test against activation domain of GAL4; assay type: cell-based; conditions: Y2H-strain AH109
T3 construct: expressed in transfected cells; host or cells: yeast Y2H reporter strain AH109
T3 sequence (P04386 768-881): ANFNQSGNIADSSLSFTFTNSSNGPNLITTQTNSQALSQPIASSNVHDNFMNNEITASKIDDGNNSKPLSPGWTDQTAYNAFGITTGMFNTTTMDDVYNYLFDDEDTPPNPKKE

[6] = target: T4, Frag2-binding domain peptide (Homo sapiens, UniProt P05787); test: Y2H test of peptide binding to the same peptide (homodimerization, stickiness); assay type: cell-based; conditions: Y2H-strain AH109
T4 construct: expressed in transfected cells; host or cells: yeast Y2H reporter strain AH109
T4 sequence (P05787 437-464 limits assumed): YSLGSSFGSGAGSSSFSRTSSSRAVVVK

[7] = target: T5, binding domain of yeast protein GAL4 (Saccharomyces cerevisiae, UniProt P04386); test: Y2H specificity test against binding domain of GAL4; assay type: cell-based; conditions: Y2H-strain AH109
T5 construct: expressed in transfected cells; host or cells: yeast Y2H reporter strain AH109
T5 sequence (P04386 11-38): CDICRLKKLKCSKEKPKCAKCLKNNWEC

GST-tagged FnbB = test: Pull-down with GST-tagged FnbB, proteins from rabbit reticulocyte translation system; assay type: binding, S. aureus; conditions: cell-free protein translation system; GST alone as negative control
From the text: Recombinant proteins were produced from the isolated plasmids from the PPI-partners in a rabbit reticulocyte-based translation system and additionally in E. coli cells. The produced recombinant proteins were used for pull-down and immunoprecipitation experiments.

BSA = BSA (Bos taurus, UniProt P02769); test: In vitro pull-down with BSA coated beads; assay type: binding; conditions: detection with anti-GST antibodies; listed as GST-tagged peptide of 48-amino acids
From the text: (§1) 6.2.1. Recombinant Protein Production • The DNA-sequence coding for ClfB was cloned into a plasmid PET160 (a plasmid suitable for recombinant protein expression in E. coli and HIS-tag purification). The plasmid harbours a so-called HIS-tag, which is a DNA sequence coding for a stretch of six histidine residues. […]
(§2) 6.2.2. […] The GST-tagged peptide was purified by using a commercial GST-tag purification kit. • After several washing steps the remaining proteins are eluted from the magnetic beads • The eluted protein/peptide mixture is loaded on a SDS-page gel, separated, transferred onto a membrane, and probed with GST-tag specific antibodies and bound antibodies are detected by chemiluminescence signals on chemiluminescence films. • The following combinations of recombinant proteins/peptides were used in the pull-downs: • a) BSA+GST-tagged 48-aminoacid long peptide • b) His-tagged ClfB+GST-tagged 48-amino acid-peptide • c) Purified GST+GST-tagged 48-amino acid-peptide

living S. aureus cells = test: Adhesion assay with living S. aureus cells, crystal violet, absorbance at 595 nm; assay type: cell-based; conditions: 1 μg coated onto microwell-plates
Procedure: • All genes coding for the used recombinant proteins were cloned into the plasmid pDEST15. […] This protein served as negative control 1 • Affinity purified, recombinantly in E. coli produced GST-tagged Frag2-CDS (49 ng/μl). the amino acid sequence of Frag2-CDS is N-[…]-C (SEQ ID NO: 71) • Affinity purified, recombinantly in E. coli produced GST-tagged S. aureus protein, methionine sulfoxide reductase msrB, NCBI protein GI:54041496, was diluted to a final concentration of 30 ng/μl. This protein served as negative control 2 • Affinity purified, recombinantly in E. coli produced GST-tagged S. aureus protein, NADPH-dependent 7-cyano-7-deazaguanine reductase, NCBI protein GI:81781951, was diluted to a final concentration of 61 ng/μl. This protein served as negative control 3 • Human aortic elastin protein, 1 mg elastin was purchased from the company Elastin Products company, product number HA587 and solubilized in 1 ml H2O to get the final concentration of 1 μg/μl. This protein served as positive control 1 because elastin protein is known to bind to S. aureus. • Human fibrinogen protein was purchased from the company Enzyme Research Laboratories, product number FIB 1 3120L; […] was solubilized in 50 ml H2O to get the final concentration of 2 μg/μl. […]

GST = target: T6, GST (Schistosoma japonicum, UniProt P08515); test: In vitro pull-down with GST coated beads; assay type: binding; conditions: detection with anti-GST antibodies; listed as GST-tagged peptide of 48-amino acids
T6 construct: purchased
T6 sequence (P08515 whole entry): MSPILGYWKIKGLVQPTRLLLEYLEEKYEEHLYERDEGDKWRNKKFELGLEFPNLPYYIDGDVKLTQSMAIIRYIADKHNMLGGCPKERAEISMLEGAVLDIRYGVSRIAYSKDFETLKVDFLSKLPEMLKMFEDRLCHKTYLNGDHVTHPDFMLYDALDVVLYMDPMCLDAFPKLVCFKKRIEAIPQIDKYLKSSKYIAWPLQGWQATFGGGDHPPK
From the text: as §1, §2

His-tagged ClfB protein [8] = target: T2, His-tagged ClfB protein; conditions: detection with anti-GST antibodies; listed as GST-tagged Keratin 8 protein fragment
From the text: as §1, §2

[9] = target: binding of GST-tagged keratin fragment to ClfB-protein (Staphylococcus aureus, UniProt Q99R07); conditions: 1 μM peptide; densitometry, ImageJ
binding of GST-tagged keratin fragment to ClfB-protein, sequence (Q99R07 45-841): as the sequence (Q99R07 45-841) above
From the text: 7.2. […] Relative changes in pulled-down GST-tagged keratin fragment is quantified by densitometry using a flatbed scanner and the ImageJ software, provided by Wayne Rasband, National Institutes of Health. (ImageJ: http://rsb.info.nih.gov/ij/) See FIGS. 8 and 9

T1 sequence (Q99R07 45-841): as above

YSLGSSFGSGAGSSSFSRTSSSRAVVVKKIETRDGKLVSESSDVLPK [Frag 2-CDS]
Identified X-times by sequencing (ClfB [1]): 28 | Identified X-times by sequencing (ClfB [1]; listed as Frag2-CDS): 28 | Interaction capable with ClfB in the Y2H-system (ClfB [2]): Yes

YSLGSSFGSGAGSSSLGRTSSSRAVVVK [stronger binder]
Relative interaction strength to ClfB compared to the original binder (ClfB [3]): binds with increased affinity | More beta galactosidase in comparison to the original binder (ClfB [3]): at least 50%

YSLGSSFGSGAGSSSFSRTSSSRAVVVKKIETRDGKLVSESSDVLPK [Frag 2]
Identified X-times by sequencing (ClfB [1]): 25 | Interaction capable with ClfB in the Y2H-system (ClfB [2]): Yes

EQRGELAIKDANAKLSELEAAL [control peptide, reference compound]
Binding of recombinant ClfB to spotted peptide (His-tagged ClfB protein [4]): no binding was detected

YSLGSSFGSGAGSSSSSRTSPSRAVVVK [more stronger binder]
Relative interaction strength to ClfB compared to the original binder (ClfB [3]): binds with increased strength | More beta galactosidase in comparison to the original binder (ClfB [3]): ≥ 100%

YSLGSSFGSGAGSSSFSRTSSSRAVVVK [Frag 2-binding domain]
Interaction with the activation domain of GAL4 protein [5]: neither interacts | Identified X-times by sequencing (ClfB [1]): 18 | Interaction of the peptide with itself [6]: does not interact with itself | Interaction with the binding-domain of GAL4 protein [7]: neither interacts | Interaction capable with ClfB in the Y2H-system (ClfB [2]): Yes | Interaction capable with ClfB in the Y2H-system (ClfB [2]; listed as Frag2-binding domain): still capable of interaction; also recorded: does only interact with ClfB protein

lysosomal sialidase NEU 1: human protein interacting with FnbB, NCBI Protein GI 30583251
Co-purified with GST-tagged FnbB (GST-tagged FnbB): could be co-purified

QELMNVKLALDIEIATYRKLLEGEESRLESGMQNMSIHTKTTSGYAGGLSSAYGGLTSPGLSYSLGSSFGSGAGSSSFSRTSSSRAVVVKKIETRDGKLVSESSDVLPK [Clone 10.1]
Identified X-times by sequencing (ClfB [1]): 8 | Interaction capable with ClfB in the Y2H-system (ClfB [2]): Yes

RAVVVKKIETRDGKLVSESSDVLPK [Frag 3]
Identified X-times by sequencing (ClfB [1]): 0 | Identified X-times by sequencing (ClfB [1]; listed as Frag3): No single clone | Interaction capable with ClfB in the Y2H-system (ClfB [2]): No

YSLGSSFGSGAGSSSFSRTSSSRAVVVKKIETRDGKLVSESSDVLPK (also: fused to a dimerising Fc or GST (not shown)) [GST-tagged Frag2-CDS]
Binding of recombinant ClfB to spotted peptide (His-tagged ClfB protein [4]): could bind | Pulled down by BSA coated beads (BSA): Neither BSA coated- nor GST coated magnetic beads could pull down; also recorded: neither a) BSA nor c) GST coated beads can pull-down | Binding to living pathogen cells (living S. aureus cells): binds strongly | Pulled down by GST coated beads (GST): Neither BSA coated- nor GST coated magnetic beads could pull down; also recorded: neither a) BSA nor c) GST coated beads can pull-down | Pulled down (co-purified) with His-tagged ClfB protein (His-tagged ClfB protein [8]): could only be pulled down when His-tagged recombinant ClfB was present

CCT—beta: human protein interacting with FnbB, NCBI Protein GI 2559012
Co-purified with GST-tagged FnbB (GST-tagged FnbB): could be co-purified

TYRKLLEGEESRLESGMQNMSIHTKTTSGYAGGLSSAYGGLTSPGLSYSLGSSFGSGAGSSSFSRTSSSRAVVVKKIETRDGKLVSESSDVLPK [Frag 1]
Identified X-times by sequencing (ClfB [1]): 12 | Interaction capable with ClfB in the Y2H-system (ClfB [2]): Yes

SYSLGSSFGSGAGSSSFSRTS [IPEP-21SA]
Competitive inhibition of binding of GST-tagged keratin fragment to ClfB-protein [9]: ~40% | Binding of recombinant ClfB to spotted peptide (His-tagged ClfB protein [4]): could bind | Binding to living pathogen cells (living S. aureus cells): binds strongly

From patent publication US20100216191A1, “Method for Manufacturing a Modified Peptide” (PROCOMCURE BIOTECH GMBH, priority 2007, published 2010)
